One assay deals with T1, wildtype HIV-1 protease (Human immunodeficiency virus type 1 group M subtype B, UniProt P04585).
T1 construct: preincubated with the HIV-1 protease (wild type) enzyme in assay buffer; made in house; host or cells: Escherichia coli
Briefly: Assay for inhibition of microbial expressed HIV protease (Pepcleav). As to conditions: wildtype HIV-1 protease expressed in E. coli; peptide substrate; mean of at least two independent experiments. It is filed as biochemical. The protocol: Assay for Inhibition of Microbial Expressed HIV Protease (“Pepcleav”)
Studies of the inhibition of the wildtype HIV-1 protease (which was expressed in Escherichia coli) were carried out with a peptide substrate [Val-Ser-Gln-Asn-(βnaphtyl)Ala-Pro-Ile-Val]. The inhibitor is first preincubated with the HIV-1 protease (wild type) enzyme in assay buffer (50 mM sodium acetate, pH 5.5, 100 mM NaCl, and 0.1% BSA) for 30 minutes at room temperature. Substrate is added to 400 micromolar in a total volume of 20 microliters containing 20 picomolar HIV-1 protease (final) and the reaction is incubated for 1 hour at 30° C. The reaction is quenched with the addition of formic acid and indinavir to 0.012% and 150 nM final concentrations, respectively. The product formation is determined after separation of product and substrate on a Zorbax Eclipse XDB-C18 column connected to an API 4000 mass spectrometer (Applied Biosystems) with multiple reaction monitoring (transitions were 644.5/428.9 and 615.4/422.2 (M1/M3) for product and indinavir respectively). The extent of inhibition of the reaction is determined from the peak area of the products. Analysis of the products, independently synthesized, provided quantitation standards and confirmation of the product composition.

The next assay relates to HIV-1 (H9IIIB strain). Put plainly: Cell-based HIV infection assay using a reporter (Cell-Based), MT4-GFP cells. As to conditions: 50% normal human serum, mean of at least two independent experiments, read-out: Cell-based IP. The procedure, abridged:
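IC50 from 4-parameter dose-response of % viral growth inhibition, using the 48 h/24 h infected-cell ratio scaled between DMSO and a protease/integrase/NNRTI triple-drug control. Assay used MT4 cells with HIV-LTR-GFP reporter, pre-infected 24 h with HIV-1 H9IIIB, in 50% normal human serum.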

Where [1] appears, read: Human immunodeficiency virus 1, MT4-GFP cells infected with HIV-1 H9IIIB.
The mark [2] stands for this setting: MT4-GFP cells infected with HIV-1 H9IIIB.

pIC50: −log10 of the molar value. Where two headings read alike, the source gives them in different places.

In the case of `CS(=O)(=O)N1CCNC[C@@H]1CCc1c(F)cncc1NC(=O)[C@@H](N)C(c1ccc(F)cc1)c1ccc(F)cc1` [Example 1, 2S-Amino-3,3-di-(4-fluorophenyl)-N-(5-fluoro-4-(2-(1-methylsulfonylpiperazin-2-yl)ethyl)pyridin-3-yl)propanamide], the pIC50 against wildtype HIV-1 protease is 8.01; in the assay on HIV-1 (H9IIIB strain) (setting [1]) it was 7.17.

`CS(=O)(=O)N1CCNC[C@H]1CCc1c(F)cncc1NC(=O)[C@@H](N)C(c1ccc(F)cc1)c1ccc(F)cc1` [Example 2, 2S-Amino-3,3-di-(4-fluorophenyl)-N-(5-fluoro-4-(2-(1-methylsulfonylpiperazin-2-yl)ethyl)pyridin-3-yl)propanamide] had a pIC50 against wildtype HIV-1 protease of 5.85. As to `COC(=O)N[C@H](C(=O)Nc1cccc(F)c1CC[C@H]1CNCCN1S(=O)(=O)c1ccccc1)C(c1cccc(F)c1)c1cccc(F)c1` [Example 3, Methyl ((S)-1-((3-fluoro-2-(2-((S)-1-(phenylsulfonyl)piperazin-2-yl)ethyl)phenyl)amino)-3,3-bis(3-fluorophenyl)-1-oxopropan-2-yl)carbamate], the pIC50 on wildtype HIV-1 protease was 9.32; in the assay with HIV-1 (H9IIIB strain) (setting [1]), 8.40. As for `N[C@H](C(=O)Nc1cncc(F)c1CCC1CNCCN1S(=O)(=O)Cc1ccccc1)C(c1ccc(F)cc1)c1ccc(F)cc1` (stereo partly drawn) [Example 21, N-(4-{2-[1-(benzylsulfonyl)piperazin-2-yl]ethyl}-5-fluoropyridin-3-yl)-4-fluoro-β-(4-fluorophenyl)-L-phenylalaninamide], the pIC50 at wildtype HIV-1 protease was 8.47. Consider `N[C@H](C(=O)Nc1cncc(F)c1CC[C@H]1CNCCN1S(=O)(=O)c1ccccc1)C(c1ccc(F)cc1)c1ccc(F)cc1` [Example 22, (S)-2-amino-N-(5-fluoro-4-(2-((S)-1-(phenylsulfonyl)piperazin-2-yl)ethyl)pyridin-3-yl)-3,3-bis(4-fluorophenyl)propanamide], for which the pIC50 against wildtype HIV-1 protease is 9.70; in the assay on HIV-1 (H9IIIB strain) (setting [1]), 8.00. Turning to `N[C@H](C(=O)Nc1cncc(F)c1CC[C@@H]1CNCCN1S(=O)(=O)c1ccccc1)C(c1ccc(F)cc1)c1ccc(F)cc1` [Example 23, (S)-2-amino-N-(5-fluoro-4-(2-((R)-1-(phenylsulfonyl)piperazin-2-yl)ethyl)pyridin-3-yl)-3,3-bis(4-fluorophenyl) propanamide], the pIC50 against wildtype HIV-1 protease is 8.00. `Nc1ccc(S(=O)(=O)N2CCNC[C@@H]2CCc2c(F)cncc2NC(=O)[C@@H](N)C(c2ccc(F)cc2)c2ccc(F)cc2)cc1` [Example 24, (S)-2-amino-N-(4-(2-((S)-1-((4-aminophenyl)sulfonyl)piperazin-2-yl)ethyl)-5-fluoropyridin-3-yl)-3,3-bis(4-fluorophenyl) propanamide] gave a pIC50 at wildtype HIV-1 protease of 9.70.

`Nc1ccc(S(=O)(=O)N2CCNC[C@H]2CCc2c(F)cncc2NC(=O)[C@@H](N)C(c2ccc(F)cc2)c2ccc(F)cc2)cc1` [Example 25, (S)-2-amino-N-(4-(2-((R)-1-((4-aminophenyl)sulfonyl)piperazin-2-yl)ethyl)-5-fluoropyridin-3-yl)-3,3-bis(4-fluorophenyl) propanamide] gave a pIC50 at wildtype HIV-1 protease of 8.89. Same read-out and setting: the result for `CS(=O)(=O)N1CCNC[C@@H]1CCc1c(F)cncc1NC(=O)[C@@H](N)[C@@H](c1ccc(F)cc1)c1cc(F)cc(F)c1` [Example 26, (2S,3S)-2-amino-3-(3,5-difluorophenyl)-N-(5-fluoro-4-(2-((S)-1-(methylsulfonyl)piperazin-2-yl)ethyl)pyridin-3-yl)-3-(4-fluorophenyl)propanamide] reads 8.46. For the compound `N[C@H](C(=O)Nc1cccc(F)c1CC[C@H]1CNCCN1S(=O)(=O)c1ccccc1)C(c1cccc(F)c1)c1cccc(F)c1` [Example 40, 3-fluoro-β-(3-fluorophenyl)-N-(3-fluoro-2-{2-[(2S)-1-(phenylsulfonyl)piperazin-2-yl]ethyl}phenyl)-L-phenylalaninamide], the pIC50 is 10.52 on wildtype HIV-1 protease and 8.32 in the assay with HIV-1 (H9IIIB strain) (setting [1]). As to `O=C(CC1(c2ccccc2)CCCNC1)Nc1cncc(F)c1CC[C@H]1CNCCN1S(=O)(=O)C1CC1` (stereo partly drawn) [Example 63, N-(4-{2-[(2S)-1-(cyclopropylsulfonyl)piperazin-2-yl]ethyl}-5-fluoropyridin-3-yl)-2-(3-phenylpiperidin-3-yl)acetamide], the pIC50 against wildtype HIV-1 protease is 5.89.

Regarding `CC(C)[C@H](c1ccc(F)cc1)[C@H](N)C(=O)Nc1cncc(F)c1CC[C@H]1CNCCN1S(=O)(=O)C1CC1` [Example 64, (βR)-N-(4-{2-[(2S)-1-(cyclopropylsulfonyl)piperazin-2-yl]ethyl}-5-fluoropyridin-3-yl)-4-fluoro-β-(1-methylethyl)-L-phenylalaninamide], the pIC50 was 7.15 at wildtype HIV-1 protease and 7.02 with HIV-1 (H9IIIB strain) (setting [1]). For `C[C@H]1CNC[C@H](CCc2c(F)cccc2NC(=O)[C@@H](N)[C@@H](c2ccc(F)cc2)c2cc(F)cc(F)c2)N1S(C)(=O)=O` [Example 96, (βS)-β-(3,5-difluorophenyl)-4-fluoro-N-(3-fluoro-2-{2-[(2S,6S)-6-methyl-1-(methylsulfonyl)piperazin-2-yl]ethyl}phenyl)-L-phenylalaninamide], the results for the pIC50 at wildtype HIV-1 protease and in the assay with HIV-1 (H9IIIB strain) (setting [2]) were 8.21 and 7.62, respectively. Consider `O=C(C[C@@H](c1ccc(F)cc1)c1cc(F)cc(F)c1)Nc1cncc(F)c1CC[C@H]1CNCCN1S(=O)(=O)C1CC1` [Example 303, (3S)-N-(4-{2-[(2S)-1-(cyclopropylsulfonyl)piperazin-2-yl]ethyl}-5-fluoropyridin-3-yl)-3-(3,5-difluorophenyl)-3-(4-fluorophenyl)propanamide], for which the pIC50 is 8.30 against wildtype HIV-1 protease and 7.85 in the assay with HIV-1 (H9IIIB strain) (setting [1]).

For the compound `CS(=O)(=O)NC1CCN(S(=O)(=O)N2CCNC[C@@H]2CCc2c(F)cncc2NC(=O)C[C@@H](c2ccc(F)cc2)c2cc(F)cc(F)c2)CC1` [Example 334, (3S)-3-(3,5-difluorophenyl)-N-(5-fluoro-4-{2-[(2S)-1-({4-[(methylsulfonyl)amino]piperidin-1-yl}sulfonyl)piperazin-2-yl]ethyl}pyridin-3-yl)-3-(4-fluorophenyl)propanamide], the pIC50 on wildtype HIV-1 protease is 8.00; with HIV-1 (H9IIIB strain) (setting [1]), 6.35. Taken in the same sequence, the figures for `CC(=O)NC1CCN(S(=O)(=O)N2CCNC[C@@H]2CCc2c(F)cncc2NC(=O)C[C@@H](c2ccc(F)cc2)c2cc(F)cc(F)c2)CC1` [Example 335, (3S)-N-(4-{2-[(2S)-1-{[4-(acetylamino)piperidin-1-yl]sulfonyl}piperazin-2-yl]ethyl}-5-fluroopyridin-3-yl)-3-(3,5-difluorophenyl)-3-(4-fluorophenyl)propanamide] were 7.62 and 6.19. The compound `O=C(C[C@@H](c1ccc(F)cc1)c1cc(F)cc(F)c1)Nc1cncc(F)c1CC[C@H]1CNCCN1C(=O)Nc1ccccc1` [Example 342, (2S)-2-[2-(3-{[(3S)-3-(3,5-difluorophenyl)-3-(4-fluorophenyl)propanoyl]amino}-5-fluoropyridin-4-yl)ethyl]-N-phenylpiperazine-1-carboxamide] gave a pIC50 against wildtype HIV-1 protease of 6.60. Take `C[C@@H]1C[C@H]([C@H](c2ccc(F)cc2)[C@H](N)C(=O)Nc2cccc(F)c2CC[C@H]2CNC[C@@H](C)N2S(=O)(=O)c2ccc(F)cc2)C[C@H](C)O1` [Example 371, (2S,3R)-2-amino-3-((2R,4r,6S)-2,6-dimethyltetrahydro-2H-pyran-4-yl)-N-(3-fluoro-2-(2-((2S,6S)-1-((4-fluorophenyl)sulfonyl)-6-methylpiperazin-2-yl)ethyl)phenyl)-3-(4-fluorophenyl)propanamide]: in the assay on HIV-1 (H9IIIB strain) (setting [1]), the pIC50 was 8.02.

On to `N[C@H](C(=O)Nc1cccc(F)c1CC[C@H]1CNCCN1S(=O)(=O)c1cc2ccccc2o1)[C@@H](c1ccc(F)cc1)c1cc(F)cc(F)c1` [Example 372, (2S,3S)-2-amino-N-(2-(2-((S)-1-(benzofuran-2-ylsulfonyl)piperazin-2-yl)ethyl)-3-fluorophenyl)-3-(3,5-difluorophenyl)-3-(4-fluorophenyl)propanamide], for which the pIC50 in the assay on HIV-1 (H9IIIB strain) (setting [1]) is 7.85.

Turning to `Cc1ccc(S(=O)(=O)N2CCNC[C@@H]2CCc2c(F)cccc2NC(=O)[C@@H](N)[C@@H](c2ccc(F)cc2)c2cc(F)cc(F)c2)o1` [Example 373, (2S,3S)-2-amino-3-(3,5-difluorophenyl)-N-(3-fluoro-2-(2-((S)-1-((5-methylfuran-2-yl)sulfonyl)piperazin-2-yl)ethyl)phenyl)-3-(4-fluorophenyl)propanamide], the pIC50 in the assay with HIV-1 (H9IIIB strain) (setting [1]) was 8.38. “methyl ((S)-1-((2R,4r,6S)-4- (4-chlorophenyl)-2,6- dimethyltetrahydro-2H- pyran-4-yl)-2-((3-fluoro-2-(2- ((2S,6S)-6-methyl-1- (phenylsulfonyl)piperazin-2- yl)ethyl)phenyl)amino)-2- oxoethyl)carbamate [Example 299]”: the pIC50 in the assay on HIV-1 (H9IIIB strain) (setting [2]) is 7.80.

The values are drawn from patent publication US9840478B2 (MERCK SHARP & DOHME CORP., priority 2013, dated 2017).
